Common to all, as to format: cell-based
Data set [1] concerns bone marrow-derived human mesenchymal stem cells (hMSCs). To be noted: for hMSC viability compared with DMSO control groups: 0.2 M trehalose. As to the method: Experiments were performed using bone marrow-derived human mesenchymal stem cells (hMSCs) from various commercial sources Human Bone-Marrow Derived Mesenchymal Stem/Stromal Cells (hBM-MSCs) were isolated from normal healthy adult donors (purchased from a commercial source (such as Rooster-Bio) along with the appropriate growth media). Cells were grown according to the manufacturer's instructions).
Prior to the development of the methodology of the present disclosure, the inventors of the instant application previously assessed a nanotechnology for intracellular trehalose delivery developed by Professor Xiaoming He, University of Maryland (Zhang et al., Cold-Responsive Nanoparticle Enables Intracellular Delivery and Rapid Release of Trehalose for Organic-Solvent-Free Cryopreservation, Nano Lett. 2019, 19, 9051-9061; Rao et al., Nanoparticle-Mediated Intracellular Delivery Enables Cryopreservation of Human Adipose-Derived Stem Cells Using Trehalose as the Sole Cryoprotectant, ACS Appl Mater Interfaces, 2015, 7(8), 5017-5028), that they had shown promoted cryopreservation of adipose tissue derived hMSCs, for bone marrow-derived MSCs. Unfortunately, the trehalose nanotechnology failed during these studies, probably due to instability of the trehalose nanoparticles during storage and transport from the University of Maryland to Charleston, S.C. […] Encouraged by these unanticipated results, the range of exogenous trehalose employed was expanded to 0.2-0.8M and compared −1, −5 and −15° C./minute cooling rates.
In the preliminary experiments, the DMSO controls were clearly the best at the 1° C./minute cooling rate (65.3±2.7% of untreated controls), however, the best overall outcome was the 0.2M trehalose group at the −15° C./minute cooling rate (78.9±3.5% of untreated controls).

Data set [2] relates to Pan T-cells. Nature of the data set: Pan T-cell survival after cryopreservation, live and dead cell counts (trypan blue). To be noted: trehalose alone, no DMSO; −15° C./minute. As for the experimental part:
(§1) Experiments were performed to assess 0.2-0.8M concentrations of extracellular trehalose combined with several concentrations of 0-5% DMSO and compared with the positive control, Cryostor-5, that contains 5% DMSO.
(§2) Pan T-cells were grown and expanded. The T-cells were then harvested and counted. Approximately 10×10^6 cells were used for each sample. Cells were resuspended in the various combinations of DMSO and trehalose in 1 mL and allowed to equilibrate on ice for 20 minutes. Samples were cooled in a CRF at −15° C./minute to −80° C. then moved to liquid nitrogen vapor phase storage for approximately 10 days. After storage, samples were thawed rapidly in a 37° C. water bath, transferred to a 15 mL centrifuge tube and diluted with 10 mL culture medium. An aliquot was taken for cell counting. […] Cells were allowed to recover for 60 minutes in a 37° C. incubator before viability was measured using resazurin dye (300 μl). The cells were left for 3 hours at 37° C. before the plate was read using a fluorescent microplate reader at an excitation wavelength of 544 nm and an emission wavelength of 590 nm. […]
(§3) In FIGS. 3A and 3B, cell survival after cryopreservation at −15° C./minute using combinations of DMSO and trehalose. […] Cell counts, live and dead, (A) as well as metabolic activity (B) was measured. […]

For data set [3], the system named is Pan T-cells. Nature of the data set: Pan T-cell metabolic activity after cryopreservation (resazurin dye). To be noted: −15° C./minute. As to the method: as §1, §2, §3
In general terms: The colour change of resazurin is a common sign of viable cells or microbes.

SMILES strings stand for the structures. Where two headings read alike, the source gives them in different places.

Regarding `C[S+](C)[O-]` [DMSO, dimethyl sulfoxide, reference compound], in data set [1], the “hMSC viability after cryopreservation” value was 65.3±2.7 % of untreated controls.
For the molecule `OC[C@H]1O[C@H](O[C@H]2O[C@H](CO)[C@@H](O)[C@H](O)[C@H]2O)[C@H](O)[C@@H](O)[C@@H]1O` [trehalose], the “protection during cryopreservation compared with control Cryostor-5” value in the data set on Pan T-cells [2] was “adequate protection similar to the control”. Further, the “cell metabolic activity, difference from control Cryostor-5” value is recorded as “significant difference” in the data set on Pan T-cells [3] (0% DMSO with 0.2M trehalose, p>0.05) and “no statistically significant differences” with Pan T-cells [3] (0% DMSO, all trehalose groups except 0.2M). For the same molecule, the “hMSC viability after cryopreservation” value in data set [1] is given as 78.9±3.5 % of untreated controls. The “hMSC viability compared with DMSO control groups” value in data set [1] (−5° C./minute cooling rate) and in data set [1] (−15° C./minute cooling rate) was “same or higher viability than the DMSO control groups” in each case. Besides, in data set [1] (trehalose present only extracellularly (used as negative control)), the “MSC survival of cryopreservation” value is “survived cryopreservation quite well”.
